Experimental data published in paper PMC5596338 (Journal of Bone and Mineral Research, 2017).

Legend:
[1] = system: bone resorption (metaphyseal BMD); experiment: Growing rat model adapted from the Schenk assay: BMD of proximal tibial metaphysis by DXA; assay type: in vivo; details: growing male Sprague Dawley rats, s.c. daily for 7 days
Experimental: The antiresorptive potency of OX14 was measured by its effect on increasing BMD compared to ALN, ZOL, RIS, and MIN in a growing rat model adapted from the Schenk assay.26, 27 These studies were performed at the Procter & Gamble Health Sciences Center, Mason, OH, USA from 2007 to 2010, as part of the program of screening new bisphosphonates. Male Sprague Dawley rats (6 weeks old, weighing 120 to 150 g) were randomized into groups (n = 6) based on body weight. All groups received treatment by subcutaneous (s.c.) injection at the same time daily for 7 days. The first treatment was on day 0, and the last treatment on day 6, with animals euthanized by cervical dislocation on day 7. BMD of the proximal metaphysis of the right tibia was analyzed using dual‐energy X‐ray analysis (DXA) using a Hologic QDR‐4500 densitometer (Hologic, Inc., Waltham, MA, USA). Efficacy of each bisphosphonate was expressed as percentage change from the vehicle control group. The dose that increased BMD 20% greater than the control was determined via a logistic dose‐response relationship (SAS Institute, Inc., Cary, NC, USA), which estimates an efficacy value using animals in the study, and for comparison of bisphosphonates across studies. Data from compounds run in multiple studies was averaged.

[2] = Mineral binding affinity: elution from hydroxyapatite (HAP) columns by FPLC; assay type: physicochemical; details: HAP column, mean ± SE
[3] = Short-term (24-hour) skeletal retention based on urinary excretion after i.v. dosing; assay type: in vivo, Sprague Dawley rats; details: for Percentage of the dose excreted in urine over 24 hours / Skeletal retention (% of administered dose): rats, i.v.; for Percentage of the dose excreted in urine over 24 hours: 0 to 24 hours, mean ± standard deviation, averaged from all studies; for Skeletal retention (% of administered dose): calculated as dose administered minus urinary excretion over 24 hours
[4] = Adverse side effects observed across all in vivo studies; set-up: species or system rats and mice
Source text: Sprague Dawley rats, C57BL/6J and NOD/SCID‐γ (NSG, NOD.Cg‐Prkdcscid Il2rgtm1Wjl/SzJ) mice were purchased from Charles River Laboratories (Wilmington, MA, USA/Margate, UK). All animals were housed in cages under standard conditions (12‐hour light/dark cycle). NSG mice were housed in specific‐pathogen‐free conditions. All animals were healthy and pathogen‐free at the start of each study and once each study had commenced they were monitored daily for any unexpected adverse effects. […] Similar calculations were used to determine group numbers in non–tumor‐bearing animals based on previously observed changes in bone (BMD or trabecular bone fraction [BV/TV]).

[5] = system: JJN3 myeloma cells in NSG mice; experiment: JJN3-NSG murine model of myeloma-induced bone disease; assay type: in vivo; details: for Osteoclast number (cortico-endosteal surface) / Cortical bone lesions by μCT / Osteolytic disease by μCT / Tumor burden by flow cytometric analysis of femoral bone marrow flushes / BV/TV by μCT: ZOL 28.4, OX14 23 µg P/kg s.c. 2×/week; for Osteoclast number (cortico-endosteal surface): tumor mice; for Cortical bone lesions by μCT / Osteolytic disease by μCT / BV/TV by μCT: vs tumor control; for BV/TV by μCT: tumor-bearing mice
Experimental: Female NSG mice (7 to 8 weeks old, weighing 19 to 23 g) were randomized based on weight into four groups (n = 8/group). Group 1 was a non–tumor‐bearing control group (naive). Groups 2 to 4 were injected via the tail vein with 1 × 10^6 JJN3 cells and then treated twice a week s.c. from the time of tumor cell injection for the duration of the study with vehicle control (PBS, group 2), ZOL (28.4 µg P/kg, group 3), or OX14 (23 µg P/kg, group 4). At the first signs of morbidity (after 3 weeks) all animals were anesthetized ([…] and 2% oxygen by inhalation) for cardiac bleeding and euthanized by cervical dislocation. Bone disease and tumor burden were assessed as described below (see Analysis of tumour burden).
At euthanasia, the right tibias were dissected free of soft tissue and fixed in 10% formalin before µCT analysis was used to measure the percentage of BV/TV. Tibias were scanned on a Skyscan 1272 (Bruker, Kontich, Belgium) at 4.3 μm with a 0.7‐degree rotation step, reconstructed using NRecon (v. 1.6.9.4; Bruker) and analyzed using CTAn (v. 1.12; Bruker). The number and area of cortical bone lesions (pixels^2) were assessed by taking the µCT datasets, removing the trabecular bone and then volume‐rendering the datasets to create 3D models using Drishti (version 1.0; ANUVizlab, Canberra, Australia), followed by analysis of three different sides of the bone using ImageJ software (version 1.47; NIH, Bethesda, MD, USA; https://imagej.nih.gov/ij/). After decalcification, wax embedding, and sectioning of the tibias, the numbers of osteoclasts (following tartrate‐resistant acid phosphatase [TRAP] staining) were assessed using OsteoMeasure Advanced Bone Histomorphometry Video System (Osteometrics, Inc., Decatur, GA, USA) and standard histomorphometric methods.28
Tumor burden was assessed on sections of tibias that had been stained with hematoxylin and eosin, where the distinct morphology of the myeloma cells distinguishes them from normal marrow. The proportion of bone marrow occupied by the myeloma cells was assessed using OsteoMeasure and expressed as a percentage of the whole bone section area as described.22 Tumor burden was also assessed in bone marrow flushes of the left femora by flow cytometry using an anti‐human HLA‐ABC‐APC antibody and an isotype‐matched control (R&D Systems, Minneapolis, MN, USA) as described.29, 30

[6] = system: bone (BV/TV, osteoclasts, osteoblasts); experiment: In vivo OX14 dose response study in non-tumor-bearing mice (µCT and histomorphometry of tibias); set-up: species or system C57BL/6J mice
Experimental: Tibias were then assessed by μCT and histological analyzes as described below (see Assessment of bone integrity). […] Bruker) and analyzed using CTAn (v. 1.12; Bruker). The number and area of cortical bone lesions (pixels^2) were assessed by taking the μCT datasets, removing the trabecular bone and then volume-rendering the datasets to create 3D models using […] (version 1.0; ANUVizlab, Canberra, Australia), followed by analysis of three different sides of the bone using ImageJ software (version 1.47; NIH, Bethesda, MD, USA; https://imagej.nih.gov/ij/). After decalcification, wax embedding, and sectioning of the tibias, the numbers of osteoclasts (following tartrate-resistant acid phosphatase [TRAP] staining) were assessed using OsteoMeasure Advanced Bone Histomorphometry Video System (Osteometrics, Inc., Decatur, GA, USA) and standard histomorphometric methods.28

[7] = system: experimentally induced inflammatory colitis; set-up: method as in earlier work; details: cited from earlier work

Structure (SMILES) | Dose required to increase BMD by 20% greater than control [1] [μg P/kg] | HAP affinity (mean retention time/min) [2] [min] | Percentage of the dose excreted in urine over 24 hours [3] | Skeletal retention (% of administered dose) [3] | Osteoclast number (cortico-endosteal surface) [5] | Cortical bone lesions by μCT [5] | Osteolytic disease by μCT [5] | Tumor burden by flow cytometric analysis of femoral bone marrow flushes ([5]; vs tumor control (JJN3)) | BV/TV by μCT [5] | other results
NCCCC(O)(P(=O)(O)O)P(=O)(O)O [Alendronate, alendronate] | 1.52 | – | – | – | – | – | – | – | – | –
O=P(O)(O)C(O)(Cc1cnc2ccccn12)P(=O)(O)O [Minodronate, minodronate] | 0.11 | 10.33 ± 0.18 | 44.80% ± 1.6 | 55.2 ± 1.6 % of administered dose | – | – | – | – | – | –
O=P(O)(O)C(F)(Cc1cnc2ccccn12)P(=O)(O)O [OX14, 1‐fluoro‐2‐(imidazo‐[1,2‐α]pyridin‐3‐yl)‐ethyl‐bisphosphonate] | 0.30 | 6.17 ± 0.08 | 52.85% ± 3.82 | 47.15 ± 3.82 % of administered dose | significant reduction in osteoclast number | significantly reduced | prevented the osteolytic disease | no significant reduction in tumor burden | significantly higher | Adverse side effects (loss or gain of weight, liver toxicity, or death) [4]: no adverse side effects; Tumor burden (overall statement) ([5]; OX14 23 µg P/kg s.c. 2×/week): not to reduce tumor burden; BV/TV by μCT ([6]; OX14 23 µg P/kg s.c. 2×/week, 3 weeks, vs vehicle): increased BV/TV; BV/TV by μCT ([6]; OX14 2.3 and 0.23 µg P/kg s.c. 2×/week, 3 weeks, vs vehicle): not significantly different from the vehicle control group; Osteoclast perimeter on the trabecular bone perimeter ([6]; OX14 2.3 and 0.23 µg P/kg, vs vehicle control): neither of the lower doses of OX14 produced significant reductions; Prevention of experimentally induced inflammatory colitis [7]: effectiveness in preventing experimentally induced inflammatory colitis
O=P(O)(O)C(O)(Cc1cccnc1)P(=O)(O)O [Risedronate, risedronate] | 0.45 | 9.97 ± 0.18 | 34.91% ± 9.3 | 65.1 ± 9.31 % of administered dose | – | – | – | – | – | % excretion (urine, 24 h) ([3]; RIS co-dosed with MIN or OX14): 32.5 ± 0.1%; % excretion (urine, 24 h) ([3]; RIS co-dosed with equal or greater amounts of ALN or ZOL): 43.2 ± 2.6%; % excretion (urine, 24 h) ([3]; RIS dose 0.1 mg): 38.1 ± 5.6%; % excretion (urine, 24 h) ([3]; RIS dose 0.5 mg): 45.1 ± 1.0%; % excretion (urine, 24 h) ([3]; RIS dose 1 mg): 43.0 ± 1.8%
O=P(O)(O)C(O)(Cn1ccnc1)P(=O)(O)O [Zoledronate, zoledronate] | 0.08 | 12.53 ± 0.1 | 27.95% ± 3.18 | 72.05 ± 3.18 % of administered dose | significant reduction in osteoclast number | significantly reduced | prevented the osteolytic disease | no significant reduction in tumor burden | significantly higher | Tumor burden by histological analysis of tibias ([5]; 28.4 µg P/kg ZOL s.c. 2×/week, vs tumor control (JJN3)): significant reduction in tumor burden; Number of osteoblasts on the trabecular bone surface ([6]; ZOL 28.4 µg P/kg s.c. 2×/week, 3 weeks, vs vehicle): significant reduction in osteoblasts
